# ChEMBL document CHEMBL1201862, “PubChem BioAssay data set” (2004)
# The source made the active and inactive calls. Rule as the data show it, for most assays here: actives have a measured IC50 and inactives only a lower limit.
# What was measured:
# [1] = biological target: G-protein coupled receptor 55 (Homo sapiens, UniProt Q9Y2T6); experiment: GPR55 antagonists blocking LPI-driven arrestin recruitment, primary screen, imaging, U2OS, beta-arrestin-GFP, LPI agonist (AID 2013); type: functional;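 also: antagonist potency measured as reduced agonist-driven arrestin aggregation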
# G-protein coupled receptor 55, sequence (Q9Y2T6 whole entry): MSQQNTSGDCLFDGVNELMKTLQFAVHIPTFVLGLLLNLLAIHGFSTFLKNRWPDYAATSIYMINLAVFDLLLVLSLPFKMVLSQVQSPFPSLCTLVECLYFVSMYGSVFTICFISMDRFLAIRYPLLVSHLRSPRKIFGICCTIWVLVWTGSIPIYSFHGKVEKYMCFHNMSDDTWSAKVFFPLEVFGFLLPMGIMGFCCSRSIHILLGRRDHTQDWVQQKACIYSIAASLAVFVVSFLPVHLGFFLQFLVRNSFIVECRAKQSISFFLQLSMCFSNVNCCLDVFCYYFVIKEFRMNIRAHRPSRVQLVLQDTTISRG
# [2] = biological target: T1, Voltage-gated N-type calcium channel alpha-1B subunit/Amyloid beta A4 precursor protein-binding family A member 1 (Homo sapiens, UniProt Q00975+Q02410); type: protein assay
# T1 sequence (Q00975 whole entry): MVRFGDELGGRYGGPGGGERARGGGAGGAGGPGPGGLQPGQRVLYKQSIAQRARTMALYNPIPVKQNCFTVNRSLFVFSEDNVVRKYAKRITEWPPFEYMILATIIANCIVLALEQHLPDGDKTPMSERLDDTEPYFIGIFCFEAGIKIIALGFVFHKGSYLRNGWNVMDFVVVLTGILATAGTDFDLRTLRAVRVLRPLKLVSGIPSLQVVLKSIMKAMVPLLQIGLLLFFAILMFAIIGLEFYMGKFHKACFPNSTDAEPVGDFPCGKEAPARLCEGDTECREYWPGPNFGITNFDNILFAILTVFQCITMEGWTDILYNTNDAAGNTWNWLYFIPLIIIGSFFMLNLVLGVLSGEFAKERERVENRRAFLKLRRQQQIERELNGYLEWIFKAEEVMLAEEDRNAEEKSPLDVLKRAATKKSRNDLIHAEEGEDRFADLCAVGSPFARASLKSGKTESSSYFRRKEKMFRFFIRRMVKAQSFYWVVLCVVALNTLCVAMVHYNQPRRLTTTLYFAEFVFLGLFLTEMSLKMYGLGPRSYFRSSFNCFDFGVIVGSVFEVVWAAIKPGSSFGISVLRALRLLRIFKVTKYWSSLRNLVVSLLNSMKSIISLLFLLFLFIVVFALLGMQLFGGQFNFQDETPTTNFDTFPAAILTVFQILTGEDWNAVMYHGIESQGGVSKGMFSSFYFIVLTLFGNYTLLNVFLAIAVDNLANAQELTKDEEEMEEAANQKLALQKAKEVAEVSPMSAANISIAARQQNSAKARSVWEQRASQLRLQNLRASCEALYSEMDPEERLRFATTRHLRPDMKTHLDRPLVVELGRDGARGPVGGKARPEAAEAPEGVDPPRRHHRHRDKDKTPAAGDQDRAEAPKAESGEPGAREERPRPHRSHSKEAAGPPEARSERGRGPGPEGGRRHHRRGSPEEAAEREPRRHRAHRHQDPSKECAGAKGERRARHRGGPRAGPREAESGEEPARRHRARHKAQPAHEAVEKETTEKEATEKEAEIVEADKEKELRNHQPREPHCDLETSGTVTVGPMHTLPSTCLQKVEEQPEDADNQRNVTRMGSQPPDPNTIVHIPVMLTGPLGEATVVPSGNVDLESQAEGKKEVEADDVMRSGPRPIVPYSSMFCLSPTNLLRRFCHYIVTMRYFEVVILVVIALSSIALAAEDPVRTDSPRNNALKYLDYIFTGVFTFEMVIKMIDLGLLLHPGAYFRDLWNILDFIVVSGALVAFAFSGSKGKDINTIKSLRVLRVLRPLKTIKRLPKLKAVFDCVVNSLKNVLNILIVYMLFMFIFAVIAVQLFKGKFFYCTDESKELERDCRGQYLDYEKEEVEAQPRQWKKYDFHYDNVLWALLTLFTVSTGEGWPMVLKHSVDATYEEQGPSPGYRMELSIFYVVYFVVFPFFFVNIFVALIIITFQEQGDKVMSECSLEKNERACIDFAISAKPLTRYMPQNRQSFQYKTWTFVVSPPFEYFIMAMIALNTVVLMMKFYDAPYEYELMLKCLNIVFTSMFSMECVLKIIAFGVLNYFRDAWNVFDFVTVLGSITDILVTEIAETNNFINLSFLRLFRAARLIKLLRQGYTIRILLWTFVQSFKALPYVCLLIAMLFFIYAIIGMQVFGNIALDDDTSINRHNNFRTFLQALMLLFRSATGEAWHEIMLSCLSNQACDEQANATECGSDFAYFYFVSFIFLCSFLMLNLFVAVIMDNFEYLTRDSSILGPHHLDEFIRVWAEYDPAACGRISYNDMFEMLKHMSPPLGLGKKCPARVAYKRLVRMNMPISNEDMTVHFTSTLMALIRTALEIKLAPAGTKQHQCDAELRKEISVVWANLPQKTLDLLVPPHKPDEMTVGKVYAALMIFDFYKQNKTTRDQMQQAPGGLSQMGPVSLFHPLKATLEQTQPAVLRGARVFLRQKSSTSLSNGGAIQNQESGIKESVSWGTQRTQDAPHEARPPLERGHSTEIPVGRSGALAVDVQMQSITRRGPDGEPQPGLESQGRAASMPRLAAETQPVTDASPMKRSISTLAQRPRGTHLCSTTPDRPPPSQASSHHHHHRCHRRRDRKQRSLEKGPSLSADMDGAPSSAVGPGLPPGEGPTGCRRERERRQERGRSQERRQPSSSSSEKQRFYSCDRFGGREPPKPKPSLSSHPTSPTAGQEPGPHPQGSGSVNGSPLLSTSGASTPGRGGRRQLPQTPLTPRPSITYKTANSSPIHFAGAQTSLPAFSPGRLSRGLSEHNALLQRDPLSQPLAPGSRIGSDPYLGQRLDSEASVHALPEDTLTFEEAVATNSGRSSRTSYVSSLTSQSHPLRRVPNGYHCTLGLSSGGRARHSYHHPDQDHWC
# T1 sequence (Q02410 whole entry): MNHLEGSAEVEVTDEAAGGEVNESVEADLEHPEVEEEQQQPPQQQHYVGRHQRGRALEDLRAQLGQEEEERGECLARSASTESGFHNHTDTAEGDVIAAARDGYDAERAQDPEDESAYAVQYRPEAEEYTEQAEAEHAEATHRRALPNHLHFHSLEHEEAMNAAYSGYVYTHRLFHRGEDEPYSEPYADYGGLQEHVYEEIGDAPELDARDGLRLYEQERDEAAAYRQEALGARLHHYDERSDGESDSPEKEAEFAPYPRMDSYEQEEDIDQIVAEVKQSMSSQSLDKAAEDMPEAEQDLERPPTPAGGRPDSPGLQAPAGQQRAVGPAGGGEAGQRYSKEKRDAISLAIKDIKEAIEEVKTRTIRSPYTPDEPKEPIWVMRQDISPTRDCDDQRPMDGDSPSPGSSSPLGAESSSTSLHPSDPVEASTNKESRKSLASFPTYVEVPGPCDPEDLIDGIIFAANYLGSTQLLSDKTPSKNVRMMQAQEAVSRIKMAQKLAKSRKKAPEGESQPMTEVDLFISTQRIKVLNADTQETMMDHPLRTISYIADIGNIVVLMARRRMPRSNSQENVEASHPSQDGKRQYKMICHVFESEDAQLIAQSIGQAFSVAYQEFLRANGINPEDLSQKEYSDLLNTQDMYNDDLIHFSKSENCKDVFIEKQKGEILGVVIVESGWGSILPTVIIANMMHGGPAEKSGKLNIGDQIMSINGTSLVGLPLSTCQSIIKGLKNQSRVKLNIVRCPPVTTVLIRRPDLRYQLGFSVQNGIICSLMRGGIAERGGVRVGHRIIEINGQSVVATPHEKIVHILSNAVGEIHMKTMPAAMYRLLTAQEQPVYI
# [3] = biological target: T1, Voltage-gated N-type calcium channel alpha-1B subunit/Amyloid beta A4 precursor protein-binding family A member 1; type: protein assay; remark: listed apart in the source
# [4] = biological target: Cytochrome P450 2C9 (Homo sapiens, UniProt P11712); conditions: Potency
# Cytochrome P450 2C9, sequence (P11712 whole entry): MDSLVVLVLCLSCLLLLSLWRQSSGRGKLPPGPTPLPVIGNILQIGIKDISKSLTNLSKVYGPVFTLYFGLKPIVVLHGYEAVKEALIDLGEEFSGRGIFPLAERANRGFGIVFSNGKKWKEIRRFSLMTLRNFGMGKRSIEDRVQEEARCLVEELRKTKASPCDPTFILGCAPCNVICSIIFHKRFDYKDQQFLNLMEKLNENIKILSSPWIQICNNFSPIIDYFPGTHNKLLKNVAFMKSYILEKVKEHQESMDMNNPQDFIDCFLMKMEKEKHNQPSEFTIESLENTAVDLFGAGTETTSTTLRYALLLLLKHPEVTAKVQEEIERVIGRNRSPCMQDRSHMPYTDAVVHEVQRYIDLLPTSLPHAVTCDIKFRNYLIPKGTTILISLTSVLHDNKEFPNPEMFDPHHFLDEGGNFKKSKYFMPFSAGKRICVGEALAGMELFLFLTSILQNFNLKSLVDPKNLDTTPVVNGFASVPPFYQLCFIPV
# [5] = biological target: T2, Ubiquitin-conjugating enzyme E2 N (Homo sapiens, UniProt P61088); type: functional
# T2 sequence (P61088 whole entry): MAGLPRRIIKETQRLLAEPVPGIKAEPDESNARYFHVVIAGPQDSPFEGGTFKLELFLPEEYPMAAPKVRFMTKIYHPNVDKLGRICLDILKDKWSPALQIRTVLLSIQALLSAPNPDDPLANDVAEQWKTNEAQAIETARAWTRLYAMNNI
# [6] = biological target: T3, Bcl-2-related protein A1 (Mus musculus, UniProt Q07440); type: functional;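 also: confirmatory dose–response counterscreen on Bfl-1, used to check hits from a UBC13 polyubiquitin inhibitor campaign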
# T3 sequence (Q07440 whole entry): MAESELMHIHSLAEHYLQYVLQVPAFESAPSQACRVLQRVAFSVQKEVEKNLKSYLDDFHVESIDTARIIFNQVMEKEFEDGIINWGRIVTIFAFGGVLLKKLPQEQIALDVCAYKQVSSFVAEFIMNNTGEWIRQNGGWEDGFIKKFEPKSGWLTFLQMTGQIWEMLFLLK
# [7] = biological target: T2, Ubiquitin-conjugating enzyme E2 N; type: functional; remark: listed apart in the source
# [8] = Counterscreen for IDE inhibitors: Luminescence-based cell-based high throughput dose response assay to identify compounds that are cytotoxic to HEK cells. [Related pubchem assays: 434962 (Primary screen (IDE inhibitors in singlicate)), 449730 (Counterscreen (Cytotoxicity in triplicate)), 435028 (Confirmation (IDE inhibitors in triplicate)) …; type: functional; conditions: HEK293
# [9] = biological target: T4, Insulin-degrading enzyme (Homo sapiens, UniProt P14735); experiment: Dose Response: Fluorescence polarization-based cell-based high throughput dose response assay for inhibitors of insulin-degrading enzyme (IDE). [Related pubchem assays: 434962 (Primary screen (IDE inhibitors in singlicate)), 449730 (Counterscreen (Cytotoxicity in triplicate)), 435028 (Confirmation (IDE inhibitors in triplicate)), 434984 (Summary …; type: functional
# T4 sequence (P14735 whole entry): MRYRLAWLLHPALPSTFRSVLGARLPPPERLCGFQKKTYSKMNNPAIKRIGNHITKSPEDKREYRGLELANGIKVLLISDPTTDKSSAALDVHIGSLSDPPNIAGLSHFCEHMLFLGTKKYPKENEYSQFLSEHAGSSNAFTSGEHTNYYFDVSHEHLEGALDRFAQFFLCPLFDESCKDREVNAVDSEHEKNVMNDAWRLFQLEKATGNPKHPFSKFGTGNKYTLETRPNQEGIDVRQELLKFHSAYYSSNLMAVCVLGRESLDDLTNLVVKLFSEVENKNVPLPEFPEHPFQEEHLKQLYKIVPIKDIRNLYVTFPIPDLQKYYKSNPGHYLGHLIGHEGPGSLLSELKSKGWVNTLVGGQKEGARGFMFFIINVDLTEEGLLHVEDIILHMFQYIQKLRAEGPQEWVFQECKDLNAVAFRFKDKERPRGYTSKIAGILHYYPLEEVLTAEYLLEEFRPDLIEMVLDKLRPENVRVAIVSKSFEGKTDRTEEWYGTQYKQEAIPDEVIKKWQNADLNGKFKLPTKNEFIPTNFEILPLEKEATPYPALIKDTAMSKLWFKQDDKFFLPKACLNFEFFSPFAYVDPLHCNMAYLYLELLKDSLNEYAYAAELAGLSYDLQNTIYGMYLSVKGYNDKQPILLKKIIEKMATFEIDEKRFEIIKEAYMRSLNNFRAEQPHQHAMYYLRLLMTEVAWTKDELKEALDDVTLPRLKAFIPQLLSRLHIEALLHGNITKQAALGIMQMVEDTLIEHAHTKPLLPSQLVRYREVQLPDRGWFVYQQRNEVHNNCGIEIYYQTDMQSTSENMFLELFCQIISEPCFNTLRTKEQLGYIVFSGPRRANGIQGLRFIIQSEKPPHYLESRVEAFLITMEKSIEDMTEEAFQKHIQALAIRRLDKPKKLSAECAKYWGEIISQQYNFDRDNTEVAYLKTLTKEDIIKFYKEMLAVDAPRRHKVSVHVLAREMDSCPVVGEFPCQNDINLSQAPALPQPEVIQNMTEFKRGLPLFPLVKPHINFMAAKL
# [10] = biological target: T1, Voltage-gated N-type calcium channel alpha-1B subunit/Amyloid beta A4 precursor protein-binding family A member 1; experiment: disruptors of Mint-PDZ/N-type channel peptide interaction – biochemical, HTRF, SAR follow-up (AID 2489); type: functional
# [11] = biological target: T1, Voltage-gated N-type calcium channel alpha-1B subunit/Amyloid beta A4 precursor protein-binding family A member 1; experiment: disruptors of Mint-PDZ/N-type channel peptide interaction – biochemical, HTRF, set 2, SAR follow-up (AID 434980); type: functional
compound,measurement,setting,value
CC12CNCC(C)(CN(C(c3ccccc3)c3ccccc3)C1)C2,IC50,[1],5.62 µM (active)
O=C(/C=C/c1ccco1)NC(=S)Nc1ccccc1N1CCOCC1,IC50,[1],4.57 µM (active)
Cc1ccc(/C=C2\SC(=S)N(CCC(=O)NNC(=O)c3cccc(O)c3)C2=O)cc1,IC50,[2],> 50 µM (inactive)
same,IC50,[3],16 µM (active)
CC(C)C[C@@H](CC(=O)N[C@H](CC(=O)N[C@@H]1CCNC[C@H]1C(=O)N[C@H](CC(=O)N[C@@H](CCC(=O)O)CC(=O)O)Cc1c[nH]c2ccccc12)C(C)C)NC(=O)[C@@H]1CCCC[C@H]1N,AC50,[4],25.1 µM (inconclusive)
Cc1[nH]c(=S)c(C#N)c(-c2ccccc2)c1C(=O)Nc1ccccc1,IC50,[5],13.9 µM (active)
same,IC50,[6],> 20 µM (inactive)
same,IC50,[7],> 20 µM (inactive)
Cc1ccc(Nc2cnn(C34CC5CC(CC(CC(=O)O)(C5)C3)C4)c(=O)c2Cl)cc1C,IC50,[8],> 55.7 µM (not active)
same,IC50,[9],18.8 µM (not active)
CC(=O)Oc1ccc(N2C(=O)C3C4C=CC(CC4)C3C2=O)cc1 (configuration not stated),IC50,[10],> 56.8 µM (inactive)
same,IC50,[11],> 56.8 µM (inactive)
